The target of data set [1] is T1, PDE5 (Homo sapiens, UniProt O76074).
T1 construct: purchased Sigma-Aldrich, St. Louis, United States
In words: Phosphodiesterase assay: inhibition of cGMP hydrolysis by recombinant PDE5. Format: biochemical. Conditions: for IC50: 5 µM cGMP, 30 min; for Ki: Cheng-Prusoff. The procedure: The study drugs were tested upon their ability to hinder cAMP and cGMP hydrolysis by inhibiting PDE3 and PDE5 respectively. Either 5 µM cAMP or cGMP (Sigma-Aldrich, St. Louis, MO, United States) were used as substrates for the enzymes. The reaction was initiated by adding PDE to the assay solution in designated Eppendorf tubes, containing fresh incubation buffer (10 mM Tris, 8.2 mM Propionic acid, 3 mM Magnesium acetate, 1.5 mM EGTA and 0.5 mg/ml BSA, 0.2 mM DTT) selected substrate (cAMP or cGMP) and inhibitor. The reaction was initiated by adding 0.016 units/µl incubate of PDE3 (Abcam, Cambridge, United Kingdom), or 0.022 units/µl incubate of PDE5 (Sigma-Aldrich, St. Louis, United States). Control samples were free of drug and were either with or without PDE. The incubation time was 30 min in the selected temperature. Reaction was stopped by adding 99.9% methanol to the solutions. Internal standards of cGMP-13C5, cAMP-13C5, AMP-13C5 (Toronto Research Chemicals Inc., Ontario, Canada) and GMP-15N5 (Sigma-Aldrich, St. Louis, MO, United States) were added to each sample, before MS analysis.
Liquid chromatography tandem mass spectrometry (LC-MS) was used to assess concentrations of the inhibitors for experiments performed to determine intracellular access of these drugs, as well as to quantify levels of cAMP/AMP and cGMP/GMP for the PDE3-and PDE5-inhibition plots. Internal standards were used, as described previously.
IC50 and Ki values were calculated for each of the drugs, both for their ability to inhibit cAMP- and cGMP- efflux, as well as PDE3 and PDE5 activity. IC50 values were derived according to [Chou (1976)], and Ki values according to [Cheng and Prusoff (1973)]. Inhibition curves were created accordingly, both with and without adjustment for normothermic control.

The test system of data set [2] is erythrocytes. The experiment in a line: Intracellular access of the drugs in erythrocytes (LC-MS). Format: in vitro ADME, human. Conditions: 30 min incubation, milrinone 10 µM, amrinone 100 µM, levosimendan 1 µM. On the procedure: Fresh (<24 h) EDTA blood from healthy donors (n = 18) was obtained and washed with Krebs-Ringer-Phosphate-Buffer containing glucose (KRPB/G, pH 7.4) and centrifuged (10 min, 1,000 g) three consecutive times. Plasma and buffy coat were removed. KRPB/G was added to the cell solution to bring it to the ratio 1:2.5. Hematocrit (Hct) was measured and adjusted with additional buffer to reach 0.44, in order to give the final Hct of 0.40 in the incubation solution. […] The reaction was stopped by placing the test tubes on ice and adding 4 ml of ice cold KRFB/G. The samples were subsequently centrifugated (5 min, 600 g), then washed with KRFB/G once more and centrifugation was repeated twice. 50 µl of the remaining red blood cell suspension was transferred to Eppendorf tubes. 50 µl 500 nM IS-Milrinone-d3 was added as an internal standard (TLC Pharmaceutical Standards Ltd.). 200 µl ZnSO4 was added to each test sample, to induce lysis of the cells, and mixed in a vortex mixer. 30 µl of the samples were used for measurement of protein concentration, the rest was mixed with 500 µl acetonitrile and centrifugated (2 min, 13400 g). Finally, 100 µl of the solution was collected for analysis using mass spectrometry (MS).
Liquid chromatography tandem mass spectrometry (LC-MS) was used to assess concentrations of the inhibitors for experiments performed to determine intracellular access of these drugs, as well as to quantify levels of cAMP/AMP and cGMP/GMP for the PDE3-and PDE5-inhibition plots. Internal standards were used, as described previously. There was a linearity from 0.2 nM to at least 2000 nM (r^2 > 0.998) for cAMP, AMP, and cGMP. For GMP, linearity was present from 2 nM to at least 2000 nM (r^2 > 0.998). Concerning PDE3-inhibitors, the linearity was found at 10 nM to at least 5,000 nM (r^2 > 0.99). Lower limit of quantification (LLOQ) was 0.2 for cAMP, cGMP, and AMP, 2 nM for GMP and 10 nM for PDE3-inhibitors (2 µl injection volume).
Intracellular concentrations of drugs were adjusted for protein concentrations in each sample. The total incubation concentrations were also adjusted for protein concentrations to evaluate the degree of access in percentage. Statistical analysis was performed using one-way ANOVA with Holm-Sidak multiple comparisons post hoc test at each temperature. ANOVA on ranks with Dunn post hoc test was used when the results were not normally distributed. The results are presented as means ± standard error of mean (SEM). p-values < 0.05 were considered significant results. Degrees of freedom (dF) is given as between group values. SigmaPlot 14.0 (Systat Software, San Jose, CA, United States) was used for all analysis, as well as creating the graphs.

Each structure is given as a SMILES string.

One may read the IC50 as the concentration that gives 50% inhibition. In general, Ki refers to a measure of affinity in units of concentration, obtained from inhibition or displacement. Consider `Nc1cc(-c2ccncc2)c[nH]c1=O` [Amrinone], for which the IC50 in data set [1] (20°C) turned out to be 105 ± 8.04 µM; in data set [1] (24°C), 99.1 ± 4.2 µM; in data set [1] (28°C), 95 ± 7.29 µM; in data set [1] (32°C) it was 84.5 ± 5.94 µM; in data set [1] (34°C), 91.9 ± 3.65 µM; in data set [1] (37°C) it was 110 ± 12.8 µM. Moreover, the Ki in data set [1] (20°C) came out at 26.7 ± 2.04 µM; in data set [1] (24°C) it was 25.1 ± 1.07 µM; in data set [1] (28°C), 24.1 ± 1.85 µM; in data set [1] (32°C), 21.5 ± 1.51 µM; in data set [1] (34°C), 23.3 ± 0.93 µM; in data set [1] (37°C), 27.8 ± 3.25 µM. For the same molecule, the “Intracellular access, % of drug concentration per gram protein in the incubation solution” value was found to be 1.66 ± 0.216% in data set [2] (28°C) and 2.303 ± 0.284% in data set [2] (34°C).

On to `C[C@@H]1CC(=O)NN=C1c1ccc(NN=C(C#N)C#N)cc1` [Levosimendan], for which the IC50 in data set [1] (20°C) was determined as 157 ± 27.5 µM; in data set [1] (24°C), 148 ± 26.1 µM; in data set [1] (28°C), 183 ± 23 µM; in data set [1] (32°C) it was 162 ± 22.5 µM; in data set [1] (34°C) it was 150 ± 13.5 µM; in data set [1] (37°C) it was 155 ± 4.74 µM. For the same molecule, the Ki in data set [1] (20°C) came out at 39.9 ± 6.97 µM; in data set [1] (24°C) it was 37.6 ± 6.63 µM; in data set [1] (28°C) it was 46.4 ± 5.85 µM; in data set [1] (32°C), 41.2 ± 5.71 µM; in data set [1] (34°C) it was 38 ± 3.41 µM; in data set [1] (37°C) it was 39.2 ± 1.2 µM. Moreover, the “Intracellular access, % of drug concentration per gram protein in the incubation solution” value in data set [2] (28°C) is on record as 18.29 ± 3.122%; in data set [2] (34°C) it was 25.06 ± 5.289%.

The values are drawn from article PMC9326216, “Treatment of Cardiovascular Dysfunction with PDE3-Inhibitors in Moderate and Severe Hypothermia—Effects on Cellular Elimination of Cyclic Adenosine Monophosphate and Cyclic Guanosine Monophosphate” (Frontiers in Physiology, 2022).
